Test results as given in ChEMBL document CHEMBL1123770, “Systematic synthesis and biological evaluation of alpha- and beta-D-lyxofuranosyl nucleosides of the five naturally occurring nucleic acid bases” (1987).
Converted amounts (≈) assume the structure as drawn.

What was measured:
[1] = system: HeLa; assay: Minimum inhibitory concentration (MIC) required to reduce virus-induced cytopathogenicity by 50% against Coxsackie virus B4 in HeLa cells; type: functional; conditions: Homo sapiens
[2] = system: HeLa; assay: Minimum cytotoxic concentration (MCC) required to cause a microscopically detectable alteration of host cell morphology, when incubated with HeLa cells; type: functional; conditions: Homo sapiens
[3] = organism: Mus musculus; assay: Number of mice dead after HSV-1 infection observed from day 12 to day 20; type: functional
[4] = organism: Mus musculus; assay: Number of mice dead after HSV-2 infection observed from day 12 to day 20; type: functional
[5] = organism: Mus musculus; assay: Number of mice normal, without lesion after HSV-1 infection observed from day 0 to day 3; type: functional
[6] = organism: Mus musculus; assay: Number of mice normal, without lesion after HSV-2 infection observed from day 0 to day 3; type: functional
[7] = organism: Mus musculus; assay: Number of mice normal, without lesion after HSV-2 infection observed from day 12 to day 20; type: functional
[8] = organism: Mus musculus; assay: Survival rate at 20th day expressed as number of mice survived infected with HSV-1; out of 10; type: functional
[9] = organism: Mus musculus; assay: Survival rate at 20th day expressed as number of mice survived infected with HSV-2; out of 10; type: functional
[10] = Minimum cytotoxic concentration (MCC) required to cause a microscopically detectable alteration of host cell morphology, when incubated with PRK cells; type: functional; conditions: Oryctolagus cuniculus
[11] = system: Vero; assay: Minimum cytotoxic concentration (MCC) required to cause a microscopically detectable alteration of host cell morphology, when incubated with Vero B cells; type: functional; conditions: Chlorocebus sabaeus
[12] = system: Vero; assay: Minimum inhibitory concentration (MIC) required to reduce virus-induced cytopathogenicity by 50% against Coxsackie virus B4 in African green monkey kidney (Vero B)cells; type: functional, Chlorocebus sabaeus; conditions: Chlorocebus sabaeus; read-out: MIC
[13] = system: WI-38; assay: Minimum cytotoxic concentration (MCC) required to cause a microscopically detectable alteration of host cell morphology, when incubated with WI-38 cells; type: functional; conditions: Homo sapiens
[14] = system: WI-38; assay: Minimum inhibitory concentration (MIC) required to reduce virus-induced cytopathogenicity by 50% against Rhinovirus 9 in human diploid (WI-38)cells; type: functional; conditions: Homo sapiens; read-out: MIC
[15] = system: Vero; assay: Minimum inhibitory concentration (MIC) required to reduce virus-induced cytopathogenicity by 50% against Parainfluenza virus-3 in African green monkey kidney (Vero B)cells; type: functional, Chlorocebus sabaeus
[16] = system: Vero; assay: Minimum inhibitory concentration (MIC) required to reduce virus-induced cytopathogenicity by 50% against Reo virus-1 in African green monkey kidney (Vero B)cells; type: functional, Chlorocebus sabaeus; conditions: Chlorocebus sabaeus; read-out: MIC
[17] = system: Vero; assay: Minimum inhibitory concentration (MIC) required to reduce virus-induced cytopathogenicity by 50% against forest virus in African green monkey kidney (Vero B)cells; type: functional; conditions: Chlorocebus sabaeus
[18] = system: Vero; assay: Minimum inhibitory concentration (MIC) required to reduce virus-induced cytopathogenicity by 50% against Sindbis virus in African green monkey kidney (Vero B)cells; type: functional; conditions: Chlorocebus sabaeus
[19] = Inhibitory effect on 196 strain of Herper simplex virus-2 yield, in primary rabbit kidney cell culture 400 ug/mL concentration after 24 hours.; type: functional, Oryctolagus cuniculus
[20] = Inhibitory effect on 196 strain of Herper simplex virus-2 yield, in primary rabbit kidney cell culture 400 ug/mL concentration after 48 hours.; type: functional, Oryctolagus cuniculus
[21] = Inhibitory effect on 196 strain of Herper simplex virus-2 yield, in primary rabbit kidney cell culture 40 ug/mL concentration after 24 hours.; type: functional, Oryctolagus cuniculus
[22] = Inhibitory effect on 196 strain of Herper simplex virus-2 yield, in primary rabbit kidney cell culture 40 ug/mL concentration after 48 hours.; type: functional, Oryctolagus cuniculus
[23] = Inhibitory effect on KOS strain of Herper simplex virus-1 yield, in primary rabbit kidney cell culture 100 ug/mL concentration after 48 hours.; type: functional, Oryctolagus cuniculus
[24] = Inhibitory effect on KOS strain of Herper simplex virus-1 yield, in primary rabbit kidney cell culture 400 ug/mL concentration after 48 hours.; type: functional, Oryctolagus cuniculus
[25] = Inhibitory effect on KOS strain of Herper simplex virus-1 yield, in primary rabbit kidney cell culture 40 ug/mL concentration after 48 hours.; type: functional, Oryctolagus cuniculus
[26] = Inhibitory effect on KOS strain of Herper simplex virus-1 yield, in primary rabbit kidney cell culture at 100 ug/mL concentration after 24 hours; type: functional, Oryctolagus cuniculus
[27] = Inhibitory effect on KOS strain of Herper simplex virus-1 yield, in primary rabbit kidney cell culture at 400 ug/mL concentration after 24 hours; type: functional, Oryctolagus cuniculus
[28] = Inhibitory effect on KOS strain of Herper simplex virus-1 yield, in primary rabbit kidney cell culture at 40 ug/mL concentration after 24 hours; type: functional, Oryctolagus cuniculus
[29] = organism: Oryctolagus cuniculus; assay: Minimum inhibitory concentration (MIC) required to reduce virus-induced cytopathogenicity by 50% against G strain of Herpes simplex virus-2 in primary rabbit kidney cells; type: functional
[30] = organism: Oryctolagus cuniculus; assay: Minimum inhibitory concentration (MIC) required to reduce virus-induced cytopathogenicity by 50% against KOS strain of Herpes simplex virus-1 in primary rabbit kidney cells; type: functional
[31] = organism: Oryctolagus cuniculus; assay: Minimum inhibitory concentration (MIC) required to reduce virus-induced cytopathogenicity by 50% against Vaccinia virus in primary rabbit kidney cells; type: functional
[32] = Inhibitory effect on 196 strain of Herper simplex virus-2 yield, in primary rabbit kidney cell culture 100 ug/mL concentration after 24 hours.; type: functional, Oryctolagus cuniculus
[33] = Inhibitory effect on 196 strain of Herper simplex virus-2 yield, in primary rabbit kidney cell culture 100 ug/mL concentration after 48 hours.; type: functional, Oryctolagus cuniculus
[34] = organism: Mus musculus; assay: Number of mice normal, without lesion after HSV-1 infection observed from day 12 to day 20; type: functional
[35] = system: WI-38 (Homo sapiens); assay: Minimum inhibitory concentration (MIC) required to reduce virus-induced cytopathogenicity by 50% against Rhinovirus-1A in human diploid (WI-38)cells
[36] = organism: Mus musculus; assay: Number of mice with skin lesions plus paralysis, after HSV-1 infection observed from day 12 to day 20; type: functional
[37] = organism: Mus musculus; assay: Number of mice dead, after HSV-1 infection observed from day 12 to day 20; type: functional
[38] = organism: Mus musculus; assay: Number of mice dead, after HSV-2 infection observed from day 12 to day 20; type: functional
[39] = Inhibitory effect on 196 strain of Herper simplex virus-2 yield, in primary rabbit kidney cell culture 4 ug/mL concentration after 24 hours.; type: functional, Oryctolagus cuniculus
[40] = Inhibitory effect on 196 strain of Herper simplex virus-2 yield, in primary rabbit kidney cell culture 4 ug/mL concentration after 48 hours.; type: functional, Oryctolagus cuniculus
[41] = Inhibitory effect on KOS strain of Herper simplex virus-1 yield, in primary rabbit kidney cell culture 10 ug/mL concentration after 48 hours.; type: functional, Oryctolagus cuniculus
[42] = Inhibitory effect on KOS strain of Herper simplex virus-1 yield, in primary rabbit kidney cell culture 4 ug/mL concentration after 48 hours.; type: functional, Oryctolagus cuniculus
[43] = Inhibitory effect on KOS strain of Herper simplex virus-1 yield, in primary rabbit kidney cell culture at 10 ug/mL concentration after 24 hours; type: functional, Oryctolagus cuniculus
[44] = Inhibitory effect on KOS strain of Herper simplex virus-1 yield, in primary rabbit kidney cell culture at 4 ug/mL concentration after 24 hours; type: functional, Oryctolagus cuniculus
[45] = Inhibitory effect on 196 strain of Herper simplex virus-2 yield, in primary rabbit kidney cell culture 10 ug/mL concentration after 24 hours.; type: functional, Oryctolagus cuniculus
[46] = Inhibitory effect on 196 strain of Herper simplex virus-2 yield, in primary rabbit kidney cell culture 10 ug/mL concentration after 48 hours.; type: functional, Oryctolagus cuniculus

Nc1ncnc2c1ncn2[C@@H]1O[C@H](CO)[C@H](O)[C@@H]1O (stereo in doubt; 8)
MIC [1]: > 400 µg/mL
MCC [2]: > 400 µg/mL
No. of mice [3]: 6
No. of mice [4]: 7
No. of mice [5]: 10
No. of mice [6]: 10
No. of mice [7]: 3
Survival rate [8]: 4
Survival rate [9]: 3
MCC [10]: > 400 µg/mL
MCC [11]: > 400 µg/mL
MIC [12]: 70 µg/mL (≈ 262 µM)
MCC [13]: > 400 µg/mL
MIC [14]: > 200 µg/mL
MIC [15]: 70 µg/mL (≈ 262 µM)
MIC [16]: > 400 µg/mL
MIC [17]: > 400 µg/mL
MIC [18]: > 400 µg/mL
Virus yield [19]: 3.8 log pfu ml-1
Virus yield [20]: 5.1 log pfu ml-1
Virus yield [21]: 5.4 log pfu ml-1
Virus yield [22]: 5.5 log pfu ml-1
Virus yield [23]: 6.7 log pfu ml-1
Virus yield [24]: 6.6 log pfu ml-1
Virus yield [25]: 7 log pfu ml-1
Virus yield [26]: 6.8 log pfu ml-1
Virus yield [27]: 6.2 log pfu ml-1
Virus yield [28]: 6.8 log pfu ml-1
MIC [29]: 100 µg/mL (≈ 374 µM)
MIC [30]: > 400 µg/mL
MIC [31]: 70 µg/mL (≈ 262 µM)
Virus yield [32]: 5.1 log pfu ml-1
Virus yield [33]: 5.3 log pfu ml-1
No. of mice [34]: 4
MIC [35]: > 200 µg/mL

Nc1ncnc2c1ncn2[C@@H]1O[C@H](CO)[C@@H](O)[C@H]1O [ADENOSINE]
No. of mice [36]: 1
No. of mice [37]: 6
No. of mice [38]: 7
No. of mice [5]: 10
No. of mice [6]: 10
No. of mice [7]: 3
Survival rate [8]: 4
Survival rate [9]: 3
Virus yield [21]: <1.6 log pfu ml-1
Virus yield [22]: 4.3 log pfu ml-1
Virus yield [39]: 5 log pfu ml-1
Virus yield [40]: 5.7 log pfu ml-1
Virus yield [41]: 6.8 log pfu ml-1
Virus yield [25]: 5.5 log pfu ml-1
Virus yield [42]: 6.8 log pfu ml-1
Virus yield [43]: 5.7 log pfu ml-1
Virus yield [28]: 3 log pfu ml-1
Virus yield [44]: 6.7 log pfu ml-1
Virus yield [45]: 4.7 log pfu ml-1
Virus yield [46]: 5.2 log pfu ml-1
No. of mice [34]: 3
